Series [1] concerns MDA-MB-231 cells. Briefly: Cell viability / cell death, trypan blue exclusion, MDA-MB-231. Type of series: cell-based, human. As to conditions: for IC50: MDA-MB-231, 48 h, read-out: IC50 reducing cell viability. As for the experimental part:
(§1) Afterward, the selected compounds 3a–d were assayed at 50 μM for 24 and 48 h in CAL-62 and MDA-MB-231 cells to assess their ability to impair the cell viability and colony formation in either normoxia or hypoxia-induced condition, the latter obtained by adding a 200 μM cobalt chloride solution, as described in previous reports[69] (Figure 8). Most cancer cells, mainly solid types, are known to have an altered metabolism due to hypoxia, a non-physiological level of oxygen tension, which contributes to therapy resistance by causing cellular quiescence.[70] Moreover, hypoxic cancer cells can induce several factors that lead to cell proliferation and colony formation.[71]
(§2) Breast cancer cell line MDA-MB-231, anaplastic thyroid cancer cell line CAL-62 and human keratinocytes HaCaT were purchased from ATCC and were cultured in RPMI 1640 medium (R0883 Sigma Aldrich-MERCK) (MDA-MB-231 and CAL-62) or DMEM medium (11965092, Gibco) supplemented with 10% fetal bovine serum (Sigma-Aldrich-MERCK, F9665), 2 mM glutamine (G7513; Sigma-Aldrich-MERCK), 100 units/mL penicillin and 0.1 mg/mL streptomycin (P0781; Sigma-Aldrich-MERCK). Adherent cells were detached by Trypsin–EDTA solution (TA049; Sigma-Aldrich-MERCK). Cells were maintained at 37 °C in humidified incubator with 5% CO2. Cells were treated with […] (CoCl2) (Merck; C8661) dissolved in distilled, sterile water for 24 h to induce hypoxia (200 μM). Hypoxic and normoxic cells were also treated with 10/50 μM of the indicated compounds (dissolved in DMSO) for 48 h, maintaining the CoCl2 in the culture medium for hypoxic conditions. SIRT3 inhibitor 3-TYP was dissolved in DMSO and added to a final concentration of 1 μM for 24 and/or 48 h.
(§3) Cell viability was assessed by the trypan blue exclusion assay. At the end of treatments, cells were harvested and stained with 0,4% trypan blue (Merck; T8154). The cell suspension was applied to a hemocytometer and counted with phase contrast microscopy (NIKON EclipseTE2000U, Nikon Netherlands, Amsterdam, The Netherlands).

The subject of series [2] is CAL-62 cells. In words: Cell viability / cell death, trypan blue exclusion, CAL-62. It counts as cell-based. As to conditions: for IC50: read-out: IC50 cell viability reduction.
A further series deals with HaCaT cells. In words: Cell viability / cell death in healthy HaCaT cells. It counts as cell-based, human. As to conditions: for toxicity against healthy HaCaT cells: 5, 10, and 25 μM, 24 and 48 h; for Cell death (%) T24 / Cell death (%) T48: HaCaT; for Cell death (%) T24: 24 h; for Cell death (%) T48: 48 h. As for the experimental part: as §2, with “Hypoxic and normoxic cells were also treated with 10/50 μM of the indicated compounds (dissolved in DMSO) for 48 h, maintaining the CoCl2 in the culture medium for hypoxic conditions.” left out
as §3

Series [3] relates to MDA-MB-231 cells. In words: Scratch assay, MDA-MB-231 cell migration. It counts as cell-based, human. The following applies: 50 μM, 48 h. The protocol:
Next, a scratch assay on MDA-MB-231 cells after treatment with 3c and 3d at 50 μM for 48 h was performed to assess their effect on cell migration (Figure 14).
Cell lines were maintained in culture medium (as above) until reaching 100% confluence, then shifted to a serum-depleted culture medium to inhibit cell proliferation, as described in Magistri et al.;[83] a scratch wound was created on the cell layer using a micropipette tip. Micrographs were taken at 0 and 48 h after the scratch. Cell-devoid areas at 0 and 48 h after the scratch were quantified through the Fiji ImageJ image processing package.

Series [4] has as its system CAL-62 cells. In words: Cell viability / cell death, trypan blue exclusion, CAL-62. It counts as cell-based. As to conditions: for reduction of cell viability: CAL-62, 50 μM; for EC50: CAL-62, 48 h, read-out: EC50 cell death induction. The protocol:
as §1, §2, §3

Series [5] has as its system SNAIL, SLUG, ZEB1, COL1A2, MMP2/9 expression in MDA-MB-231. Briefly: qRT-PCR of EMT master regulator and ECM genes in MDA-MB-231 cells. As to conditions: 48 h; for EMT master regulator and ECM gene expression: MDA-MB-231, 10 μM; for SLUG expression / SNAIL, ZEB1, COLLAGEN, and MMP2/9 gene expression / SLUG gene expression / SNAIL, COL1A2, and MMP2/9 expression levels: MDA-MB-231, 50 μM; for SLUG expression / SNAIL, ZEB1, COLLAGEN, and MMP2/9 gene expression: hypoxic conditions (CoCl2); for SLUG gene expression / SNAIL, COL1A2, and MMP2/9 expression levels: normoxia. It counts as cell-based, human. The protocol:
Afterward, based on the double localization described for SIRT3, which was primarily found into the mitochondria but translocated into the nucleus in stressful conditions,[75] the effects of SIRT3 activators on gene expression regulation were evaluated in MDA-MB-231 cells.
Considering the previously described involvement of hypoxia in EMT induction,[78] we extended our biological study by analyzing the effects of SIRT3 activators on gene expression regulation under hypoxic conditions. Hypoxia induction of EMT was verified by gene expression analysis (upregulation of SNAIL, ZEB1, COLLAGEN, MMPs, and SLUG) after 72 h of treatment with CoCl2. In these experimental conditions, we verified the effectiveness of the previously tested SIRT3 activators 3c and 3d (50 μM, 48 h) in reducing EMT genes expression.
RNAs were extracted by ReliaPrep RNA tissue miniprep system (Promega, Madison, WI, USA) and reverse transcribed with an iScriptTM c-DNA synthesis kit (Bio-Rad Laboratories Inc., Hercules, CA, USA). Real-time (RT-qPCR) analyses were performed on cDNAs that were amplified by the qPCR reaction using GoTaq qPCR Master Mix (Promega, Madison, WI, USA). Relative amounts obtained with the 2(−ΔCt) method were normalized with respect to the housekeeping gene human L32. Statistical analysis was performed with GraphPad Prism 8, and differences in gene expression were considered significant with a p-value <0.05.

[6] abbreviates: MDA-MB-231, 50 μM, 48 h, hypoxia.
Where [7] appears, read: MDA-MB-231, 50 μM, 48 h, normoxia.

Like-named read-outs stand apart in the source and are kept apart here.

The values below come from article PMC10388363, “Novel 1,4-Dihydropyridines as Specific Binders and Activators of SIRT3 Impair Cell Viability and Clonogenicity and Downregulate Hypoxia-Induced Targets in Cancer Cells” (Journal of Medicinal Chemistry, 2023).

For the compound `CCOC(=O)C1=CN(C(=O)c2cc(OC)cc(OC)c2)C=C(C(=O)OCC)C1c1ccccc1` [Compound 3d, Diethyl 1-(3,5-dimethoxybenzoyl)-4-phenyl-1,4-dihydropyridine-3,5-dicarboxylate], the half-inhibitory concentration (IC50) is 10.6 µM in the series on MDA-MB-231 cells [1] (Homo sapiens, hypoxia); 3.64 µM in the series on MDA-MB-231 cells [1] (Homo sapiens, normoxia); ~3.5 µM in the series with CAL-62 cells [2] (Homo sapiens, CAL-62, 48 h, hypoxia); ~16.7 µM in the series with CAL-62 cells [2] (Homo sapiens, CAL-62, 48 h, normoxia). Also, the viability at 10 µM with MDA-MB-231 cells [1] (Homo sapiens, MDA-MB-231, 10 μM, 48 h, read-out: Cell viability (%) T48) is 36.3%; in the series on CAL-62 cells [2] (Homo sapiens, CAL-62, 10 μM, 48 h, read-out: Cell viability (%) T48) it was 63.5%; with CAL-62 cells [4] (Homo sapiens, CAL-62, 10 μM, 24 h, read-out: Cell viability (%) T24), 79.6%. Also, the reduction in cell viability (%) at 50 µM with MDA-MB-231 cells [1] (Homo sapiens, MDA-MB-231, 50 μM, 24 h, normoxia, read-out: viability impairment) was found to be 34%. In addition, the “Cell death (%) T48” value with MDA-MB-231 cells [1] (MDA-MB-231, 10 μM, 48 h) is on record as 63,6%; with CAL-62 cells [2] (CAL-62, 5 μM, 48 h) it was 21,7%; with CAL-62 cells [2] (CAL-62, 25 μM, 48 h), 66,1%; in the series with HaCaT cells (5 μM), 16,1%; with HaCaT cells (10 μM) it was 33,9%; with HaCaT cells (25 μM), 47,3%. Besides, the “Cell death (%) T48” value with CAL-62 cells [4] (CAL-62, 10 μM, 48 h) was 36,6%. Further, the reduction viability in the series with MDA-MB-231 cells [1] (setting [6]) and in the series on MDA-MB-231 cells [1] (setting [7]) was 75% each time. The “Cell death (%) T24” value is recorded as 14,3% in the series with CAL-62 cells [2] (CAL-62, 5 μM, 24 h); 20,4% in the series with CAL-62 cells [2] (CAL-62, 10 μM, 24 h); 25,6% in the series on CAL-62 cells [2] (CAL-62, 25 μM, 24 h); 3,9% in the series with HaCaT cells (5 μM); 8,4% in the series on HaCaT cells (10 μM); 15,3% with HaCaT cells (25 μM). Also, in the series with CAL-62 cells [2] (CAL-62, 48 h), the “higher efficacy in hypoxia than in normoxia (cell viability reduction and cell death induction)” value came to 4.8 fold. Besides, the viability at 5 µM with CAL-62 cells [2] (Homo sapiens, CAL-62, 5 μM, 24 h, read-out: Cell viability (%) T24) was found to be 85.7%; with CAL-62 cells [2] (Homo sapiens, CAL-62, 5 μM, 48 h, read-out: Cell viability (%) T48), 78.3%. Also, the viability at 25 µM in the series on CAL-62 cells [2] (Homo sapiens, CAL-62, 25 μM, 24 h, read-out: Cell viability (%) T24) came to 74.4%; with CAL-62 cells [2] (Homo sapiens, CAL-62, 25 μM, 48 h, read-out: Cell viability (%) T48), 33.8%. Moreover, the “toxicity against healthy HaCaT cells” value with HaCaT cells was “some degree of cell viability reduction and cell death only after 48 h treatment and at higher concentrations (10 and 25 μM)”. Moreover, the MDA-MB-231 cell migration entry in the series on MDA-MB-231 cells [3] is on record as “nicely reduce”. Besides, the “impairment of MDA-MB-231 migration rate” value in the series on MDA-MB-231 cells [3] is given as “over 75%”. Moreover, the “reduction of cell viability” value was found to be 55% with CAL-62 cells [4] (24 h, normoxia); 80% in the series with CAL-62 cells [4] (48 h, hypoxia (200 μM CoCl2)); 90% with CAL-62 cells [4] (48 h, normoxia). Besides, the 50% effective concentration (EC50) in the series with CAL-62 cells [4] (Homo sapiens, hypoxia) is ~3.5 µM; in the series with CAL-62 cells [4] (Homo sapiens, normoxia) it was ~16.7 µM. The “EMT master regulator and ECM gene expression” value in series [5] is listed as “effective even at 10 μM”. In addition, the SLUG expression entry in series [5] was “affected”. For the same compound, the “SNAIL, ZEB1, COLLAGEN, and MMP2/9 gene expression” value in series [5] was “impair”. Also, the SLUG gene expression entry in series [5] is “not significantly affected”. Also, the “SNAIL, COL1A2, and MMP2/9 expression levels” value in series [5] is “reduce”.

For `CCOC(=O)C1=CN(C(=O)c2cccc(OC)c2)C=C(C(=O)OCC)C1c1ccccc1` [Compound 3a, Diethyl 1-(3-methoxybenzoyl)-4-phenyl-1,4-dihydropyridine-3,5-dicarboxylate], the reduction viability turned out to be 11% with MDA-MB-231 cells [1] (setting [6]) and 60% with MDA-MB-231 cells [1] (setting [7]). The “reduction of cell viability” value amounted to 37% in the series with CAL-62 cells [4] (24 h, normoxia); 59% in the series on CAL-62 cells [4] (48 h, hypoxia (200 μM CoCl2)); 64% with CAL-62 cells [4] (48 h, normoxia).

With `CCOC(=O)C1=CN(C(=O)c2ccc(OC)c(OC)c2)C=C(C(=O)OCC)C1c1ccccc1` [Compound 3c, Diethyl 1-(3,4-dimethoxybenzoyl)-4-phenyl-1,4-dihydropyridine-3,5-dicarboxylate], in the series on HaCaT cells, the “toxicity against healthy HaCaT cells” value was “negligible toxicity”. The MDA-MB-231 cell migration result in the series on MDA-MB-231 cells [3] was “nicely reduce”. Further, in series [5], the “EMT master regulator and ECM gene expression” value is given as “effective even at 10 μM”; the SLUG expression entry is on record as “affected”; the “SNAIL, ZEB1, COLLAGEN, and MMP2/9 gene expression” value is recorded as “impair”; the SLUG gene expression result is “not significantly affected”. Also, in series [5], the “SNAIL, COL1A2, and MMP2/9 expression levels” value is “reduce”.
